Test results as given in patent US8501804B2, “Bicyclic compound” (Takeda Pharmaceutical Company Limited, priority 2008, dated 2013).

Assays:
[1] = biological target: T1, human ACC2 (Nd) (Homo sapiens, UniProt O00763); assay: ACC2 inhibitory activity (malachite green); type: biochemical; conditions: test compound 10 μM; for inhibition at 10 µM: read-out: ACC2 10 μM inhibitory rate (%)
T1 construct: His6 (from vector pFAST-BacHTa); made in house; host or cells: SF-9 insect cells, recombinant baculovirus BAC-ACC2 (Nd)
T1 sequence (O00763 117-2458 limits assumed): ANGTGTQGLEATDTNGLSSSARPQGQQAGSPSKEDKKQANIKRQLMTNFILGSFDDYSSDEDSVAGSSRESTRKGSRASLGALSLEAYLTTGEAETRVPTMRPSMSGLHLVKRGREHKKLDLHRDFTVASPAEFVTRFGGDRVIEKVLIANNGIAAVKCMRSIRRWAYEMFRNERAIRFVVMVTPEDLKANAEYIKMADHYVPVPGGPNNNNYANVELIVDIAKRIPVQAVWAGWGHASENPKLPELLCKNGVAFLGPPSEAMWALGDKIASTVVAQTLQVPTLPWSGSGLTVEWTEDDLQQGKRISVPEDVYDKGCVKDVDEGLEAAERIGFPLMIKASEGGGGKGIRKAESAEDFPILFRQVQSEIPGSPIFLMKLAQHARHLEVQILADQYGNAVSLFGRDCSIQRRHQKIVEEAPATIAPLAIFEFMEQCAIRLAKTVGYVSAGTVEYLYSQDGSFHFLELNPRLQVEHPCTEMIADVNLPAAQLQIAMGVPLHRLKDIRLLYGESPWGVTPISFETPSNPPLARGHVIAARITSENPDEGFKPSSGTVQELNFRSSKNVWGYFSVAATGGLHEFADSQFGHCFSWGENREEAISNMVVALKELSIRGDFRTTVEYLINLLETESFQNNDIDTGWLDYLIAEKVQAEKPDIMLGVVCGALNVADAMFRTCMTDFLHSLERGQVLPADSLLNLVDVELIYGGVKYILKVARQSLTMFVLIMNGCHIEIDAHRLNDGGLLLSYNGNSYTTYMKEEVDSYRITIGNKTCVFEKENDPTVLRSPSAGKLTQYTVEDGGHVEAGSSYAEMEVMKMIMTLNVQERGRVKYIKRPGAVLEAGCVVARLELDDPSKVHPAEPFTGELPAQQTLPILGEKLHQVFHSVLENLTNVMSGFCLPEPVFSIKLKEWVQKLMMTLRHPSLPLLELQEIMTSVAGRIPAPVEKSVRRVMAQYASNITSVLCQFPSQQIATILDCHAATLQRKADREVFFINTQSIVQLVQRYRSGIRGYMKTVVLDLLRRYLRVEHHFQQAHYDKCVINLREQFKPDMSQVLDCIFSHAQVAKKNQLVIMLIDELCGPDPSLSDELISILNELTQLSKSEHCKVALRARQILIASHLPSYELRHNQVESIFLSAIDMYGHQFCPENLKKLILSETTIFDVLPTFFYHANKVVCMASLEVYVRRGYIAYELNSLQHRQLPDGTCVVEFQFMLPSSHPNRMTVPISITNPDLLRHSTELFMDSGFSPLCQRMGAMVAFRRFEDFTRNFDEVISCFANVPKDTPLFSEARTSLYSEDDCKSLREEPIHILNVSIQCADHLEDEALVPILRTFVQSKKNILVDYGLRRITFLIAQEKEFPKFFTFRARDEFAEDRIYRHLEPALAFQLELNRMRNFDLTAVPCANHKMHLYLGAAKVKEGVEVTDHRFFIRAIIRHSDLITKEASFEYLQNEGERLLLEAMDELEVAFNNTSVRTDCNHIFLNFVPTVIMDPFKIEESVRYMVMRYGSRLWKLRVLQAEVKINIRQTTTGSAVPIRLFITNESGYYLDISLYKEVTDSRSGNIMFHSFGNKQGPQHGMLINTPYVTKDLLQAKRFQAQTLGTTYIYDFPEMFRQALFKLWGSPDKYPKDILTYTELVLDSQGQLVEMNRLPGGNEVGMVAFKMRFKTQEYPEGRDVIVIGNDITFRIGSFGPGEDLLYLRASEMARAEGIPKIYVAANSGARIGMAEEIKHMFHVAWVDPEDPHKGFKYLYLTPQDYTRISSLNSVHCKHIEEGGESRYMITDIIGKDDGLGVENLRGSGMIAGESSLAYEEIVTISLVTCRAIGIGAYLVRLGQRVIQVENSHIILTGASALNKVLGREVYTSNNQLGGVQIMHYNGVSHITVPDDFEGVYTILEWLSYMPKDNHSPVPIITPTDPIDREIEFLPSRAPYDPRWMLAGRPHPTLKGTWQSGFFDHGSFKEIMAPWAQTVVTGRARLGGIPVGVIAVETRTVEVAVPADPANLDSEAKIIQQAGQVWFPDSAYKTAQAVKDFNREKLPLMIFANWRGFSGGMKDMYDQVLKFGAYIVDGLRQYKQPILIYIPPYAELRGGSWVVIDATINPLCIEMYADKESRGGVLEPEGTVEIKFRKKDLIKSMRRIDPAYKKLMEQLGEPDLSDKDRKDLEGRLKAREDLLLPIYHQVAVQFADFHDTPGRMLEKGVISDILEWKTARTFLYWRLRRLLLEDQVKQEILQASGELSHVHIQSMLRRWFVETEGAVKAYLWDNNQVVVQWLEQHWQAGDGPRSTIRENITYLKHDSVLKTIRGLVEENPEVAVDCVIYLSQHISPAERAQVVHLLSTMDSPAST
Procedure: The ACC2 inhibitory action of the compound of the present invention was evaluated by the following method.
(1) Cloning of Human ACC2 Gene and Preparation of Recombinant Baculovirus
(§1) Human ACC2 gene was cloned by PCR using a human skeletal muscle cDNA library (Clontech) as a template and Primer 1 and Primer 2 shown below. Primer 1 and Primer 2 were prepared by adding SalI, XbaI restriction enzyme recognition sequences based on the information of the base sequence of human ACC2 gene (Genbank Accession U89344).
(§2) PCR was performed using Pyrobest DNA polymerase (TAKARA BIO INC.). The obtained PCR product was cloned to pT7 Blue vector (Novagen) and, after confirmation of the base sequence, digested with restriction enzymes SalI and XbaI. The obtained DNA fragment was inserted into pFAST-BacHTa (Invitrogen) digested with restriction enzymes SalI and XbaI to give expression plasmid ACC2/pFAST-BacHTa.
A plasmid for expression of ACC2 without a mitochondrial targeting sequence was prepared by PCR using the expression plasmid as a template, and Primer 3 (SalI restriction enzyme recognition sequence was added) and Primer 4 prepared by reference to the information of human ACC2 gene base sequence (Genbank Accession U89344).
as §2, with “Pyrobest-DNA” for “Pyrobest DNA”, “AflII.” for “XbaI.”, “ACC2/pFAST-BacHTa” for “pFAST-BacHTa (Invitrogen)”, “AflII” for “XbaI”, “ACC2mito7/pFAST-BacHTa.” for “ACC2/pFAST-BacHTa.”
Using the expression plasmid ACC2mito7/pFAST-BacHTa and BAC-TO-BAC Baculovirus Expression System (Invitrogen), virus stock BAC-ACC2 of recombinant Baculovirus (N terminal deleted (hereinafter Nd)) was prepared.
(2) Preparation of ACC2 (Nd) Protein
SF-9 cells (Invitrogen) were inoculated to a medium (2 L) for insect cells (Sf-900IISFM medium (Invitrogen) containing 10% fetal bovine serum (Trace), 50 mg/L Gentamicin (Invitrogen), 0.1% Pluronic F-68 (Invitrogen)) at 0.5×10^6 cells/mL, and cultured with shaking in Wave Bioreactor (Wave) at 27° C., 20 rpm, rocking angle 6°, oxygen concentration 30%.
On day 4 of the culture, 3 L of the medium for insect cells was added, the rocking angle was set to 8°, and the cells were cultured. On day 5 of the culture, 100 ml of recombinant Baculovirus BAC-ACC2 (Nd) was added, 5 L of the medium for insect cells was further added, the rocking angle was set to 11°, and the cells were cultured for 3 days. The culture medium was centrifuged at 1000×g for 10 min to give virus-infected cells. The cells were washed with phosphate buffered saline (Invitrogen) and centrifuged under the same conditions. The obtained cells were cryopreserved at −80° C.
The cryopreserved cells were thawed in ice and suspended in 900 ml of 25 mM HEPES buffer (pH 7.5) containing 10% Glycerol, 0.13 M NaCl, 1 mM EDTA, 25 mM Sodium β-Glycerophosphate and 1 mM Sodium Orthovanadate, and supplemented with Complete Protease Inhibitor (Nippon Boehringer Ingelheim Co., Ltd.). The obtained suspension was homogenized three times in a polytron homogenizer (Kinematica) at 20,000 rpm for 30 sec. The obtained cell disruption solution was clarified by centrifugation at 31000×g for 60 min, and filtered through a 0.45 μm filter. The filtrate was passed through a column packed with 60 mL of Ni-NTA Super Flow Gel (QUIAGEN) at a flow rate of about 5 mL/min. The column was washed with buffer A (50 mM HEPES (pH 7.5) containing 0.3 M NaCl), further washed with buffer A containing 20 mM Imidazole, and eluted with buffer A containing 100 mM Imidazole. The eluate was concentrated with Vivaspin 20 (Vivascience) with a molecular weight cut off of 30K. The obtained concentrate was dialyzed against 50 mM HEPES (pH 7.5) containing 10 mM MgCl2, 2 mM Dithiothreitol, 10 mM Tripotassium Citrate and 0.3 M NaCl. The inner dialysate was filtered through a 0.22 μm filter to give ACC2 (Nd). […]

[2] = biological target: T2, human ACC1 (Homo sapiens, UniProt Q13085); assay: ACC1 inhibitory activity (malachite green); type: biochemical; conditions: test compound 10 μM; for inhibition at 10 µM: read-out: ACC1 10 μM inhibitory rate (%)
T2 construct: His6 (from vector pFAST-BacHTc); made in house; host or cells: SF-9 insect cells, recombinant baculovirus BAC-ACC1
Procedure: The ACC1 inhibitory action of the compound of the present invention was evaluated by the following method.
(1) Cloning of Human ACC1 Gene and Preparation of Recombinant Baculovirus
as §1, with “ACC1” for “ACC2”, “liver” for “skeletal muscle”, “NotI” for “XbaI”, “U19822).” for “U89344).”
as §2, with “NotI.” for “XbaI.”, “pFAST-BacHTc” for “pFAST-BacHTa”, “NotI” for “XbaI”, “ACC1/pFAST-BacHTc.” for “ACC2/pFAST-BacHTa.”
Using the expression plasmid ACC1/pFAST-BacHTc and BAC-TO-BAC Baculovirus Expression System (Invitrogen), virus stock BAC-ACC1 of recombinant Baculovirus was prepared.
(2) Preparation of ACC1 Protein
SF-9 cells (Invitrogen) were inoculated to a medium (1 L) for insect cells (Sf-900IISFM medium (Invitrogen) containing 10% fetal bovine serum (Trace), 50 mg/L Gentamicin (Invitrogen), 0.1% Pluronic F-68 (Invitrogen)) at 1×10^6 cells/mL, and cultured with shaking in 2 L meyer at 27° C., 100 rpm.
After 24 hr of the culture, 10 mL of recombinant Baculovirus BAC-ACC1 was added, and the cells were cultured for 3 days. The culture medium was centrifuged at 1000×g for 5 min to give virus-infected cells. The cells were washed with phosphate buffered saline (Invitrogen) and centrifuged under the same conditions. The obtained cells were cryopreserved at −80° C.
The cryopreserved cells were thawed in ice and suspended in 100 mL of 25 mM HEPES buffer (pH 7.5) containing 10% Glycerol, 0.13 M NaCl, 1 mM EDTA, 25 mM Sodium […] and 1 mM Sodium Orthovanadate, and supplemented with Complete Protease Inhibitor (Nippon Boehringer Ingelheim Co., Ltd.). The obtained suspension was homogenized three times in a polytron homogenizer (Kinematica) at 20,000 rpm for 30 sec. The obtained cell disruption solution was clarified by centrifugation at 185700×g for 50 min, and filtered through a 0.45 μm filter. The filtrate was passed through a column packed with 12 ml of Ni-NTA Super Flow Gel (QUIAGEN) at a flow rate of about 5 mL/min. The column was washed with buffer A (50 mM HEPES (pH 7.5) containing 0.3 M NaCl), further washed with buffer A containing 20 mM Imidazole, and eluted with buffer A containing 100 mM Imidazole. The eluate was concentrated with Vivaspin 20 (Vivascience) with a molecular weight cut off of 30K. The obtained concentrate was dialyzed against Sephadex G-25 (Amersham Biosciences, 358 mL) equilibrated with 50 mM HEPES (pH 7.5) containing 10 mM MgCl2, 2 mM Dithiothreitol, 10 mM Tripotassium Citrate and 0.3 M NaCl. The inner dialysate was concentrated with Vivaspin 20 (Vivascience) with molecular weight cut off of 30K, and concentrate was filtered through a 0.22 μm filter to give ACC1. The obtained ACC1 was cryopreserved at −80° C.
(3) Measurement of ACC1 Inhibitory Activity
ACC1 (0.93 mg/ml) obtained in the above-mentioned (2) was diluted with an enzyme reaction buffer (50 mM HEPES (pH 7.5), 10 mM MgCl2, 10 mM Tripotassium Citrate, 2 mM Dithiothreitol, 0.75 mg/ml Fatty acid free BSA) to a concentration of 8 μg/ml, and the mixture was added to each well of a 384 well assay plate (Nunc 265196) by 10 μl. A test compound was dissolved in dimethyl sulfoxide (DMSO) and the mixture was diluted with an enzyme reaction buffer and the resulting solution (5 μl) was added to each well. The mixture was incubated at 30° C. for 60 min. Then, a substrate solution (50 mM KHCO3, 200 μM ATP, 200 μM Acetyl-CoA, 5 μl) was added to each well, and the mixture was reacted at 30° C. for 20 min (test compound addition group). […]

SMILES: CC(=O)N[C@@H](C)[C@@H]1Cc2ccc(C#Cc3ccc(OCC4CC4)cc3)cc2O1.CC(=O)N[C@H](C)[C@H]1Cc2ccc(C#Cc3ccc(OCC4CC4)cc3)cc2O1 (mixture of isomers) [Example 129 (retention time longer), N-{(1R)-1-[(2R)-6-{[4-(cyclopropylmethoxy)phenyl]ethynyl}-2,3-dihydro-1-benzofuran-2-yl]ethyl}acetamide and N-{(1S)-1-[(2S)-6-{[4-(cyclopropylmethoxy)phenyl]ethynyl}-2,3-dihydro-1-benzofuran-2-yl]ethyl}acetamide]
- ACC2 10 μM inhibitory rate (%) [1]: 86%
- ACC1 10 μM inhibitory rate (%) [2]: 51%

SMILES: CC(=O)N[C@@H](C)[C@@H]1Cc2ccc(CCc3ccc(OCC4CC4)cc3)cc2O1.CC(=O)N[C@H](C)[C@H]1Cc2ccc(CCc3ccc(OCC4CC4)cc3)cc2O1 (mixture of isomers) [Example 130 (retention time longer), N-{(1R)-1-[(2R)-6-{2-[4-(cyclopropylmethoxy)phenyl]ethyl}-2,3-dihydro-1-benzofuran-2-yl]ethyl}acetamide and N-{(1S)-1-[(2S)-6-{2-[4-(cyclopropylmethoxy)phenyl]ethyl}-2,3-dihydro-1-benzofuran-2-yl]ethyl}acetamide]
- ACC2 10 μM inhibitory rate (%) [1]: 62%
- ACC1 10 μM inhibitory rate (%) [2]: 25%

SMILES: CC(=O)N[C@H](C)[C@H]1Cc2ccc(C#Cc3ccc(OCC4CC4)cc3)cc2O1 (racemic) [Example 111, 1:1 mixture of N-{(1R)-1-[(2R)-6-{[4-(cyclopropylmethoxy)phenyl]ethynyl}-2,3-dihydro-1-benzofuran-2-yl]ethyl}acetamide and N-{(1S)-1-[(2S)-6-[([4-(cyclopropylmethoxy)phenyl]ethynyl]-2,3-dihydro-1-benzofuran-2-yl]ethyl}acetamide]
- inhibition at 10 µM [1]: 78%
- inhibition at 10 µM [2]: 30%

SMILES: CC(=O)N[C@H](C)[C@H]1Cc2ccc(CCc3ccc(OCC4CC4)cc3)cc2O1 (racemic) [Example 121, 1:1 mixture of N-{(1R)-1-[(2R)-6-{2-[4-(cyclopropylmethoxy)phenyl]ethyl}-2,3-dihydro-1-benzofuran-2-yl]ethyl}acetamide and N-{(1S)-1-[(2S)-6-{2-[4-(cyclopropylmethoxy)phenyl]ethyl}-2,3-dihydro-1-benzofuran-2-yl]ethyl}acetamide]
- inhibition at 10 µM [1]: 73%
- inhibition at 10 µM [2]: 35%

SMILES: CCOc1ccc(COc2ccc3oc(C(C)NC(C)=O)cc3c2)cc1 (stereo not shown) [Example 18, N-(1-{5-[(4-ethoxybenzyl)oxy]-1-benzofuran-2-yl}ethyl)acetamide]
- inhibition at 10 µM [1]: 85%
- inhibition at 10 µM [2]: 15%

SMILES: CCOc1ccc(COc2ccc3cc(C(C)NC(C)=O)sc3c2)cc1 (stereo not shown) [Example 19, N-(1-{6-[(4-ethoxybenzyl)oxy]-1-benzothiophen-2-yl}ethyl)acetamide]
- inhibition at 10 µM [1]: 78%
- inhibition at 10 µM [2]: 24%

SMILES: CCOc1ccc(CCc2ccc3cc(C(C)NC(C)=O)oc3c2)cc1 (stereo not shown) [Example 20, N-(1-{6-[2-(4-ethoxyphenyl)ethyl]-1-benzofuran-2-yl}ethyl)acetamide]
- ACC2 10 μM inhibitory rate (%) [1]: 83%
- ACC1 10 μM inhibitory rate (%) [2]: 23%

SMILES: CCOc1ccc(COc2ccc3oc(C(C)NC(C)=O)cc3c2)cc1 (stereo not shown) [Example 27, optically active forms (two kinds) of N-(1-{5-[(4-ethoxybenzyl)oxy]-1-benzofuran-2-yl}ethyl)acetamide]
- ACC2 10 μM inhibitory rate (%) [1]: 76%
- ACC1 10 μM inhibitory rate (%) [2]: 18%

SMILES: CCOc1ccc(COc2ccc3oc(C(C)NC(C)=O)cc3c2)c(Cl)c1 (stereo not shown) [Example 28, N-(1-{5-[(2-chloro-4-ethoxybenzyl)oxy]-1-benzofuran-2-yl}ethyl)acetamide]
- inhibition at 10 µM [1]: 81%
- inhibition at 10 µM [2]: 19%

SMILES: CCCOc1ccc(CCc2ccc3cc(C(C)NC(C)=O)oc3c2)cc1 (stereo not shown) [Example 32, N-(1-{6-[2-(4-propoxyphenyl)ethyl]-1-benzofuran-2-yl}ethyl)acetamide]
- inhibition at 10 µM [1]: 84%
- inhibition at 10 µM [2]: 36%

SMILES: CCOc1ccc(OCc2ccc3sc(C(C)NC(C)=O)nc3c2)cc1 (stereo not shown) [Example 37, N-(1-{5-[(4-ethoxyphenoxy)methyl]-1,3-benzothiazol-2-30 yl}ethyl)acetamide]
- inhibition at 10 µM [1]: 77%
- inhibition at 10 µM [2]: -4%
